Reference: PubChem BioAssay (NCI)
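Method: 48-hour compound exposure of cells in 96-well plates, five concentrations, linear interpolation of endpoints. The concentration for 50% growth inhibition is given as GI50. TGI: total growth inhibition.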

Columns and labels:
Assay in all cases: NCI anticancer screen, dose series, 48 h
OVCAR-8 ovarian = test system: OVCAR-8 ovarian
RXF 393 renal = test system: RXF 393 renal
OVCAR-3 ovarian = test system: OVCAR-3 ovarian
NCI/ADR-RES ovarian = test system: NCI/ADR-RES ovarian
U251 CNS = test system: U251 CNS
UACC-62 melanoma = test system: UACC-62 melanoma
A549 NSCLC = test system: A549 NSCLC
HOP-62 NSCLC = test system: HOP-62 NSCLC
MALME-3M melanoma = test system: MALME-3M melanoma
RPMI-8226 leukemia = test system: RPMI-8226 leukemia
UACC-257 melanoma = test system: UACC-257 melanoma
CCRF-CEM leukemia = test system: CCRF-CEM leukemia
UO-31 renal = test system: UO-31 renal
HCC-2998 colon = test system: HCC-2998 colon
M14 melanoma = test system: M14 melanoma
SN12C renal = test system: SN12C renal
OVCAR-5 ovarian = test system: OVCAR-5 ovarian
SNB-75 CNS = test system: SNB-75 CNS
PC-3 prostate = test system: PC-3 prostate
SR leukemia = test system: SR leukemia
MCF7 breast = test system: MCF7 breast
SW-620 colon = test system: SW-620 colon
CAKI-1 renal = test system: CAKI-1 renal
HS 578T breast = test system: HS 578T breast
SF-295 CNS = test system: SF-295 CNS
SK-OV-3 ovarian = test system: SK-OV-3 ovarian
NCI-H522 lung = test system: NCI-H522 lung
A498 renal = test system: A498 renal
DU-145 prostate = test system: DU-145 prostate

## O=C1NC(=NCCc2cccs2)S/C1=C\c1ccc2ncccc2c1
OVCAR-8 ovarian
  GI50: 10.3 µM
  TGI: > 25 µM
RXF 393 renal
  GI50: 7.68 µM
  TGI: > 25 µM
OVCAR-3 ovarian
  GI50: 10.1 µM
  TGI: > 25 µM
NCI/ADR-RES ovarian
  GI50: 15.3 µM
  TGI: > 25 µM
U251 CNS
  GI50: 8.79 µM
  TGI: > 25 µM
UACC-62 melanoma
  GI50: 9.51 µM
  TGI: > 25 µM
A549 NSCLC
  GI50: 8.83 µM
  TGI: > 25 µM
HOP-62 NSCLC
  GI50: 11.8 µM
  TGI: > 25 µM
MALME-3M melanoma
  GI50: > 25 µM
  TGI: > 25 µM
RPMI-8226 leukemia
  GI50: 11.6 µM
  TGI: > 25 µM
UACC-257 melanoma
  GI50: > 19.3 µM
  TGI: > 25 µM
CCRF-CEM leukemia
  GI50: 10.2 µM
  TGI: > 25 µM
UO-31 renal
  GI50: 11.4 µM
  TGI: > 25 µM
HCC-2998 colon
  GI50: 22.1 µM
  TGI: > 25 µM
M14 melanoma
  GI50: 12.1 µM
  TGI: > 25 µM
SN12C renal
  GI50: 8.78 µM
  TGI: > 25 µM
OVCAR-5 ovarian
  GI50: > 20.4 µM
  TGI: > 25 µM
SNB-75 CNS
  GI50: 5.91 µM
  TGI: > 22.6 µM
PC-3 prostate
  GI50: > 20 µM
  TGI: > 25 µM
SR leukemia
  GI50: 2.23 µM
  TGI: 14.2 µM
MCF7 breast
  GI50: 8.28 µM
  TGI: > 25 µM
SW-620 colon
  GI50: 8.2 µM
  TGI: > 25 µM
CAKI-1 renal
  GI50: 9.7 µM
  TGI: > 25 µM
HS 578T breast
  GI50: 6.57 µM
  TGI: > 21.8 µM
SF-295 CNS
  GI50: 9.56 µM
  TGI: > 25 µM
SK-OV-3 ovarian
  GI50: 9.36 µM
  TGI: > 25 µM
NCI-H522 lung
  GI50: 7.33 µM
  TGI: > 25 µM
A498 renal
  GI50: 7.59 µM
  TGI: > 22.3 µM
DU-145 prostate
  GI50: 11.2 µM
